What all share (format): functional
Experiment [1] concerns CAKI-1. As to the kind of experiment: Cytotoxicity against human Caki1 cells assessed as growth inhibition after 48 hrs by sulforhodamine B assay. The note with it: CAKI-1, 48 h. (Sulforhodamine B stains cellular protein and so reports cell mass.)
For experiment [2], the system named is CAKI-1. As to the kind of experiment: Cytotoxicity against human Caki1 cells assessed as cell growth at 0.01 uM after 48 hrs by sulforhodamine B assay relative to control. The note with it: CAKI-1, 48 h, read-out: Activity.
Experiment [3] has as its system SK-MEL-2. Description: Cytotoxicity against human SK-MEL-2 cells assessed as cell growth at 0.01 uM after 48 hrs by sulforhodamine B assay relative to control. The note with it: SK-MEL-2, 48 h, read-out: Activity.
Experiment [4] deals with LOX IMVI. As to the kind of experiment: Cytotoxicity against human LOXIMVI cells assessed as cell growth at 0.01 uM after 48 hrs by sulforhodamine B assay relative to control. The note with it: read-out: Activity.
Experiment [5] relates to LOX IMVI. As to the kind of experiment: Cytotoxicity against human LOXIMVI cells assessed as cell growth at 0.1 uM after 48 hrs by sulforhodamine B assay relative to control. The note with it: read-out: Activity.
Experiment [6] concerns SK-MEL-2. As to the kind of experiment: Cytotoxicity against human SK-MEL-2 cells assessed as cell growth at 0.1 uM after 48 hrs by sulforhodamine B assay relative to control. The note with it: SK-MEL-2, 48 h, read-out: Activity.
The subject of experiment [7] is CAKI-1. Description: Cytotoxicity against human Caki1 cells assessed as cell growth at 0.1 uM after 48 hrs by sulforhodamine B assay relative to control. The note with it: CAKI-1, 48 h, read-out: Activity.
In experiment [8] the test system is LOX IMVI. Description: Cytotoxicity against human LOXIMVI cells assessed as cell growth at 1 uM after 48 hrs by sulforhodamine B assay relative to control. The note with it: read-out: Activity.
For experiment [9], the system named is SK-MEL-2. Description: Cytotoxicity against human SK-MEL-2 cells assessed as cell growth at 1 uM after 48 hrs by sulforhodamine B assay relative to control. The note with it: SK-MEL-2, 48 h, read-out: Activity.
Experiment [10] has as its system CAKI-1. Description: Cytotoxicity against human Caki1 cells assessed as cell growth at 1 uM after 48 hrs by sulforhodamine B assay relative to control. The note with it: CAKI-1, 48 h, read-out: Activity.
Experiment [11] concerns LOX IMVI. Description: Cytotoxicity against human LOXIMVI cells assessed as cell growth at 10 uM after 48 hrs by sulforhodamine B assay relative to control. The note with it: read-out: Activity.
For experiment [12], the system named is SK-MEL-2. As to the kind of experiment: Cytotoxicity against human SK-MEL-2 cells assessed as cell growth at 10 uM after 48 hrs by sulforhodamine B assay relative to control. The note with it: SK-MEL-2, 48 h, read-out: Activity.
Experiment [13] concerns LOX IMVI. Description: Cytotoxicity against human LOXIMVI cells assessed as cell growth at 100 uM after 48 hrs by sulforhodamine B assay relative to control. The note with it: read-out: Activity.
Experiment [14] deals with SK-MEL-2. As to the kind of experiment: Cytotoxicity against human SK-MEL-2 cells assessed as cell growth at 100 uM after 48 hrs by sulforhodamine B assay relative to control. The note with it: SK-MEL-2, 48 h, read-out: Activity.
In experiment [15] the test system is CAKI-1. As to the kind of experiment: Cytotoxicity against human Caki1 cells assessed as cell growth at 100 uM after 48 hrs by sulforhodamine B assay relative to control. The note with it: CAKI-1, 48 h, read-out: Activity.
For experiment [16], the system named is HOP-92. As to the kind of experiment: Cytotoxicity against human HOP92 cells assessed as growth inhibition after 48 hrs by sulforhodamine B assay. The note with it: HOP-92, 48 h.
The subject of experiment [17] is SF-295. As to the kind of experiment: Cytotoxicity against human SF295 cells assessed as growth inhibition after 48 hrs by sulforhodamine B assay. The note with it: SF-295, 48 h.
The test system of experiment [18] is SNB-75. Description: Cytotoxicity against human SNB75 cells assessed as growth inhibition after 48 hrs by sulforhodamine B assay. The note with it: SNB-75, 48 h.
Experiment [19] relates to HOP-92. Description: Cytotoxicity against human HOP92 cells assessed as cell growth at 0.01 uM after 48 hrs by sulforhodamine B assay relative to control. The note with it: HOP-92, 48 h, read-out: Activity.
Experiment [20] deals with HOP-92. Description: Cytotoxicity against human HOP92 cells assessed as cell growth at 0.1 uM after 48 hrs by sulforhodamine B assay relative to control. The note with it: HOP-92, 48 h, read-out: Activity.
The subject of experiment [21] is HOP-92. As to the kind of experiment: Cytotoxicity against human HOP92 cells assessed as cell growth at 1 uM after 48 hrs by sulforhodamine B assay relative to control. The note with it: HOP-92, 48 h, read-out: Activity.
For experiment [22], the system named is HOP-92. Description: Cytotoxicity against human HOP92 cells assessed as cell growth at 10 uM after 48 hrs by sulforhodamine B assay relative to control. The note with it: HOP-92, 48 h, read-out: Activity.
Experiment [23] relates to HOP-92. As to the kind of experiment: Cytotoxicity against human HOP92 cells assessed as cell growth at 100 uM after 48 hrs by sulforhodamine B assay relative to control. The note with it: HOP-92, 48 h, read-out: Activity.

The values that follow come from ChEMBL document CHEMBL4138123, “Design, synthesis and biological evaluation of novel pyrazolochalcones as potential modulators of PI3K/Akt/mTOR pathway and inducers of apoptosis in breast cancer cells” (Eur J Med Chem, 2017).

On to `COc1cc(-c2cc(/C=C/C(=O)c3ccc(F)c(F)c3)[nH]n2)cc(OC)c1OC`, for which the LC50 in [1] is greater than 100 µM. Besides, in [1], the TGI was greater than 100 µM. For the same compound, the growth at 0.01 µM amounted to 95% in experiment [2], 93% in [3] and 93% in [4]. Besides, the values for the growth at 0.1 µM in experiment [5], in [6] and in experiment [7] were 94%, 98% and 94%, respectively. For the same compound, the growth at 1 µM in [8] turned out to be 92%; in [9], 94%; in experiment [10], 84%. Further, the growth at 10 µM was 8% in [11] and -28% in experiment [12]. Moreover, the growth at 100 µM in experiment [13] was -86%; in experiment [14], -64%; in experiment [15] it was 3%.

Take `COc1ccc(-c2cc(/C=C/C(=O)c3ccc4c(c3)OCO4)[nH]n2)cc1OC`: the GI50 in [16] was found to be 1.97 µM; in experiment [17], 1.6 µM; in [18], 1.16 µM.

In the case of `COc1cc(-c2cc(/C=C/C(=O)c3ccc(Cl)c(Cl)c3)[nH]n2)cc(OC)c1OC`, the concentration for total growth inhibition (TGI) in experiment [16] was 8.25 µM; in experiment [1] it was greater than 100 µM. The CC50 in [16] (read-out: LC50 (the source's name)) was 75.9 µM. In addition, the LC50 in experiment [1] is greater than 100 µM. Besides, the growth at 0.01 µM in experiment [2] worked out at 91%; in experiment [3], 94%; in [4] it was 96%; in experiment [19], 89%. The growth at 0.1 µM was determined as 90% in experiment [20], 92% in [5], 88% in experiment [6] and 91% in experiment [7]. Further, the growth at 1 µM in experiment [21] was 89%; in experiment [8] it was 88%; in experiment [9] it was 99%; in experiment [10], 87%. Moreover, the growth at 10 µM in experiment [22] was -8%; in experiment [11] it was 16%; in experiment [12], 68%. For the same compound, the growth at 100 µM was -56% in [23], -58% in experiment [13], -60% in experiment [14] and 11% in experiment [15].

The term LC50 denotes the concentration lethal to half of the exposed cells or organisms. The term TGI denotes the concentration giving total growth inhibition. Broadly, the GI50 is the concentration at which growth is held to half of that of the control.
